In publication PMC10854894, “A New Benzo[6,7]oxepino[3,2-b] Pyridine Derivative Induces Apoptosis in Canine Mammary Cancer Cell Lines” (Animals : an Open Access Journal from MDPI, 2024):

Legend:
Format in all cases: cell-based, canine
CMGT071020 cells [1] = assay: Annexin V-FITC/PI apoptosis assay, flow cytometry; details: 48 h; for percentage of total apoptosis: untreated 5.97%
Protocol: (§1) The mode of cell death induced by MPOBA was evaluated using FITC Annexin V apoptosis detection kit I (BD Bioscience, San Jose, CA, USA) according to the manufacturer’s protocols. The REM134 and CMGT071020 cell lines were seeded at a density of 2 × 10^4 cells/well in a 12-well plate and allowed to grow for 24 h (60% confluency) prior to treatment with MPOBA at concentrations ranging from 0 to 200 µM for 48 h. After the incubation period, all adhering and floating cells were harvested and transferred into sterile centrifuge tubes. The cells were centrifuged at 400× g for 5 min at room temperature. The supernatant was aspirated, leaving approximately 50 µL of residual fluid in the tubes to avoid disturbing the pellets. FITC Annexin V (5 µL) and PI (5 µL) were added to the tubes containing cell pellets. The mixtures were gently vortexed and incubated for 15 min at room temperature in the dark. A binding buffer (400 µL) was added to each tube. A total of 20,000 events were acquired for each sample using a CytoFLEX flow cytometer (Beckman Coulter, Miami, FL, USA) within an hour. […] The experiment was performed with four replicates. The positive control was doxorubicin-treated CMC cells, while the negative control was 0.1% DMSO-treated CMC cells.

REM134 cells [2] = assay: Annexin V-FITC/PI apoptosis assay, flow cytometry; details: 48 h; for percentage of total apoptosis: untreated 5.14%
Protocol: as §1

CMGT071020 cells [3] = assay: Wound healing assay; details: CMGT071020, 100 or 200 µM, 12 or 24 h, vs untreated control
Protocol: (§2) The effect of MPOBA on cell migration was examined using a two-dimensional wound healing assay. The REM134 and CMGT071020 cell lines were seeded in a 6-well plate at a density of 5 × 10^5 cells/well and allowed to incubate for 24 h until they reached 100% confluence. The cells were scratched using a sterile 1 mL pipette tip and then treated with MPOBA at concentrations ranging from 0 to 200 µM for 24 h. Images of the scratches were captured at 0, 12, and 24 h post-treatment using phase-contrast microscopy. The wound areas were checked and measured using the NIS-Elements D imaging software program version 5.2 (Nikon, Tokyo, Japan). The cell migration ability was calculated as a percentage of the area covered by cells at 24 h compared to the initial wound area at 0 h. The experiments were repeated four times.

REM134 cells [4] = assay: Wound healing assay; details: REM134, 100 or 200 µM, 12 or 24 h, vs untreated control
Protocol: as §2

CMGT071020 cells [5] = assay: Morphological analysis, phase-contrast microscopy; details: CMGT071020, 50, 100 or 200 µM, 48 h
Protocol: (§3) To investigate the morphological changes of the two CMC cell lines during the treatment with MPOBA, they were cultured in a 6-well plate at a density of 2 × 10^5 cells/well and allowed to incubate for 24 h until they reached 70–80% confluence. They were subsequently treated with MPOBA at varying concentrations from 0 to 200 µM for 48 h. Images of the cells were captured using a phase-contrast inverted microscope (Nikon, Tokyo, Japan) at 40× magnification.

REM134 cells [6] = assay: Morphological analysis, phase-contrast microscopy; details: REM134, 50, 100 or 200 µM, 48 h
Protocol: as §3

Cc1ncccc1Oc1ccccc1C=O [MPOBA, 2-((2-methylpyridin-3-yl)oxy)benzaldehyde]
percentage of total apoptosis (CMGT071020 cells [1]; CMGT071020, 100 µM): 21.88%
percentage of total apoptosis (CMGT071020 cells [1]; CMGT071020, 200 µM): 27.07%
viability at 50 µM (CMGT071020 cells [1]; Canis lupus familiaris, CMGT071020, 50 μM, Figure 7A plot, read-out: viable cells): 80.6%
viability at 100 µM (CMGT071020 cells [1]; Canis lupus familiaris, CMGT071020, 100 μM, Figure 7A plot, read-out: viable cells): 72.9%
viability at 200 µM (CMGT071020 cells [1]; Canis lupus familiaris, CMGT071020, 200 μM, Figure 7A plot, read-out: viable cells): 63.4%
viability at 50 µM (REM134 cells [2]; Canis lupus familiaris, REM134, 50 μM, Figure 7A plot, read-out: viable cells): 84.1%
viability at 100 µM (REM134 cells [2]; Canis lupus familiaris, REM134, 100 μM, Figure 7A plot, read-out: viable cells): 75.5%
viability at 200 µM (REM134 cells [2]; Canis lupus familiaris, REM134, 200 μM, Figure 7A plot, read-out: viable cells): 69.6%
percentage of total apoptosis (REM134 cells [2]; REM134, 100 µM): 23.6%
percentage of total apoptosis (REM134 cells [2]; REM134, 200 µM): 28.75%
cell migration (wound closure) (CMGT071020 cells [3]): significant decline in cell migration
cell migration (wound closure) (REM134 cells [4]): significant decline in cell migration
cell morphology (CMGT071020 cells [5]): reduced in cell size, cell shrinkage, rounding, vacuolation, and a loss of cell-to-cell adhesion
cell morphology (REM134 cells [6]): reduced in cell size, cell shrinkage, rounding, vacuolation, and a loss of cell-to-cell adhesion
